# Where a chain is given by its changes, count along the chain named.
# Tests used:
# HilD^K293A = target: T1, HilD^K293A (Salmonella typhimurium, UniProt P0CL08, K293A); test: ELISA binding of fatty acid to HilD K293A
# T1 construct: made in house; host or cells: E. coli BL21 (DE3)
# T1 sequence (P0CL08 1-309 K293A): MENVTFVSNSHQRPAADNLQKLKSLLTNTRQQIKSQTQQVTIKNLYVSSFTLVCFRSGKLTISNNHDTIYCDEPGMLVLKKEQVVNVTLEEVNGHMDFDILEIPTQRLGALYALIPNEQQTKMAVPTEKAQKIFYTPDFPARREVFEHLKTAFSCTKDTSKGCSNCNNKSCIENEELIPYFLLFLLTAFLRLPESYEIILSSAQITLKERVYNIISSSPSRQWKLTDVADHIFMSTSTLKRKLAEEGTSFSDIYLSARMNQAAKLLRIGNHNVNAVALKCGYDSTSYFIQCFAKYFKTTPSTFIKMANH
# Experimental: (§1) hilD or its mutated sequences were amplified and cloned into pET15b(+) under an N-terminal 6xHis tag. The constructs were transformed into E. coli BL21 (DE3) for expression. Transformants were induced with 5 mM IPTG for 4 hours. Cultures were centrifuged, lysed and treated with TALON beads as described above. Bound protein was eluted by applying 1 ml elution buffer to the columns. Elution was confirmed by SDS-PAGE. Following confirmation, eluted samples were dialyzed overnight in dialysis buffer (50 mM sodium phosphate, 300 mM NaCl, 10% glycerol). Protein concentration and quality were assessed by Bradford estimation and SDS-PAGE.
# (§2) 96-well polystyrene plates were coated with 10 μM fatty acid in coating buffer (0.05 M sodium carbonate-bicarbonate, pH 9.3) and incubated overnight at 4°C. Wells were washed three times with PBS, followed by addition of blocking buffer (1% Ficoll 400 in PBS). After blocking, wells were washed three times with PBS, and different concentrations of proteins in blocking buffer were added and incubated at room temperature for 2 hours. […] After color development, reaction was stopped with 1N sulfuric acid and read spectrophotometrically at 490 nm. Binding was analyzed in GraphPad Prism.
# (§3) All experiments were repeated twice and data of representative experiment have been shown. Kd was calculated by using Total One-Site binding in GraphPad Prism. […]
# HilD [1] = target: T2, HilD (Salmonella typhimurium, UniProt P0CL08, K43A); test: HilD half-life (degradation) assay by western blot; format: cell-based; settings: HilD K43A-3XFLAG; 20 μM fatty acid
# T2 construct: hilD with a C-terminal 3XFLAG tag was cloned into pWSK29 under control of the tetRA promoter; expressed in transfected cells; host or cells: Salmonella Typhimurium strain carrying pWSK29-PtetRA-hilD-3XFLAG (background with chromosomal hilD, hilC and rtsA null)
# T2 sequence (P0CL08 1-309 K43A): T1 sequence (P0CL08 1-309 K293A) with K43A, A293K
# Experimental: (§4) The HilD half-life was assessed as previously described. Salmonella strains having plasmids with tetracycline-inducible hilD or its mutated sequence with a C-terminal 3XFLAG tag and a sipB::lacZ fusion (for invasion gene expression assessment) were grown overnight and then diluted 1:100 into LB buffered with 100 mM MOPS (pH 6.7) with appropriate antibiotics and fatty acids or control solvents. After 2 hours of growth, aliquots were collected to quantitate sipB::lacZ expression in a β-galactosidase assay. Individual cultures were then equilibrated to an OD600 of 1.0 to ensure equal density at the half-life assay beginning point. New protein production was halted by addition of a cocktail of antibiotics (rifampin, streptomycin and spectinomycin). These cultures were incubated at 37°C and aliquots were collected every 30 minutes for 2 hours. Samples were lysed in 5X sample buffer, boiled, and immunoblotted with an anti-FLAG antibody to monitor HilD.
# HilD [2] = target: T3, HilD (Salmonella typhimurium, UniProt P0CL08); test: HilD half-life (degradation) assay by western blot; format: cell-based; settings: wild type HilD-3XFLAG; grown with 20 μM fatty acid for two hours, protein expression halted
# T3 construct: hilD with a C-terminal 3XFLAG tag was cloned into pWSK29 under control of the tetRA promoter; expressed in transfected cells; host or cells: Salmonella Typhimurium strain carrying pWSK29-PtetRA-hilD-3XFLAG (background with chromosomal hilD, hilC and rtsA null)
# T3 sequence (P0CL08 1-309): T1 sequence (P0CL08 1-309 K293A) with A293K
# Experimental: as §4
# HilD^Q290A = target: T4, HilD^Q290A (Salmonella typhimurium, UniProt P0CL08, Q290A); test: ELISA binding of fatty acid to HilD Q290A
# T4 construct: made in house; host or cells: E. coli BL21 (DE3)
# T4 sequence (P0CL08 1-309 Q290A): T1 sequence (P0CL08 1-309 K293A) with Q290A, A293K
# Experimental: as §1, §2, §3
# [3] = plates pre-adsorbed with 10 μM fatty acid
Structure (SMILES),binding in ELISA (in words) (HilD^K293A),HilD degradation (HilD [1]),HilD degradation (HilD [2]),Kd (HilD^Q290A; [3]),Kd (HilD^K293A; [3]),binding in ELISA (in words) (HilD^Q290A)
"CCCCCCCCCCCCC/C=C\C(=O)O [c2-HDA, cis-2-hexadecenoic acid]",negligible binding,degraded as rapidly as wild type HilD,Rapid degradation,9.7 µM,,
"CCCCCCCCCCCCC/C=C/C(=O)O [t2-HDA, trans-2-hexadecenoic acid]",,escaped degradation,degraded,,16.7 µM,failed to bind

# Reference: paper PMC7932555, “A diffusible signal factor of the intestine dictates Salmonella invasion through its direct control of the virulence activator HilD” (PLoS Pathogens, 2021)
